System: MV-4-11 cells
Experiment: Gene expression microarray analysis (Affymetrix PrimeView) and GSEA
Format: cell-based, human
Design: RFU PODN (11730768_x_at) / Fold change /veh PODN (11730768_x_at) / RFU LINC00158 (11744669_a_at) / Fold change /veh LINC00158 (11744669_a_at) / RFU DUSP10 (11751237_a_at) / Fold change /veh DUSP10 (11751237_a_at) / RFU ID3 (11757404_x_at) / Fold change /veh ID3 (11757404_x_at) / RFU PLEKHG5 (11737974_s_at) / Fold change /veh PLEKHG5 (11737974_s_at) / RFU LRRC4B (11730491_at) / Fold change /veh LRRC4B (11730491_at) / RFU GIMAP4 (11747438_a_at) / Fold change /veh GIMAP4 (11747438_a_at) / RFU KRT8 (11758183_x_at) / Fold change /veh KRT8 (11758183_x_at) / RFU CNN1 (11734310_a_at) / Fold change /veh CNN1 (11734310_a_at) / RFU VPS37D (11726825_at) / Fold change /veh VPS37D (11726825_at) / RFU C10orf10 (11716522_x_at) / Fold change /veh C10orf10 (11716522_x_at) / RFU KIR2DL2 /// KIR2DL4 /// KIR2DL5A /// KIR2DL5B /// KIR2DS1 /// KIR2DS2 /// KIR2DS3 /// KIR2DS4 /// KIR3DL3 /// KIR3DL3 /// KIR3DS1 (11738374_at) / Fold change /veh KIR2DL2 /// KIR2DL4 /// KIR2DL5A /// KIR2DL5B /// KIR2DS1 /// KIR2DS2 /// KIR2DS3 /// KIR2DS4 /// KIR3DL3 /// KIR3DL3 /// KIR3DS1 (11738374_at) / RFU C1QL1 (11718748_at) / Fold change /veh C1QL1 (11718748_at) / RFU TMPRSS4 (11747572_a_at) / Fold change /veh TMPRSS4 (11747572_a_at) / RFU HAMP (11756126_x_at) / Fold change /veh HAMP (11756126_x_at) / RFU RNFT2 (11725882_a_at) / Fold change /veh RNFT2 (11725882_a_at) / RFU NR4A2 (11747474_a_at) / Fold change /veh NR4A2 (11747474_a_at) / RFU ABCC12 (11746883_a_at) / Fold change /veh ABCC12 (11746883_a_at) / RFU TMEM136 (11760407_x_at) / Fold change /veh TMEM136 (11760407_x_at) / RFU CLDN22 /// WWC2 (11732394_at) / Fold change /veh CLDN22 /// WWC2 (11732394_at) / RFU HLA-DPB1 (11760878_x_at) / Fold change /veh HLA-DPB1 (11760878_x_at) / RFU SPINT1 (11716480_a_at) / Fold change /veh SPINT1 (11716480_a_at) / RFU GAP43 (11754022_s_at) / Fold change /veh GAP43 (11754022_s_at) / RFU A4GNT (11735810_at) / Fold change /veh A4GNT (11735810_at) / RFU PRB3 (11715151_x_at) / Fold change /veh PRB3 (11715151_x_at) / RFU TUBB4B (11761932_at) / Fold change /veh TUBB4B (11761932_at) / RFU CAPN14 (11732068_a_at) / Fold change /veh CAPN14 (11732068_a_at) / RFU TMCC2 (11721928_a_at) / Fold change /veh TMCC2 (11721928_a_at) / RFU IRGQ (11745062_a_at) / Fold change /veh IRGQ (11745062_a_at) / RFU FAM174B (11720279_a_at) / Fold change /veh FAM174B (11720279_a_at) / RFU TMPRSS4 (11748680_a_at) / Fold change /veh TMPRSS4 (11748680_a_at) / RFU FAM212B (11763350_a_at) / Fold change /veh FAM212B (11763350_a_at) / RFU PLEKHG5 (11743358_a_at) / Fold change /veh PLEKHG5 (11743358_a_at) / RFU ZSCAN30 (11745921_a_at) / Fold change /veh ZSCAN30 (11745921_a_at) / RFU CMKLR1 (11741424_a_at) / Fold change /veh CMKLR1 (11741424_a_at) / RFU LOC101060620 /// MAPK8IP1 (11723275_at) / Fold change /veh LOC101060620 /// MAPK8IP1 (11723275_at) / RFU SPTSSB (11747773_x_at) / Fold change /veh SPTSSB (11747773_x_at) / RFU PRSS12 (11739890_at) / Fold change /veh PRSS12 (11739890_at) / RFU BIN1 (11741810_x_at) / Fold change /veh BIN1 (11741810_x_at) / RFU WNT11 (11732464_a_at) / Fold change /veh WNT11 (11732464_a_at) / RFU C10orf10 (11716521_a_at) / Fold change /veh C10orf10 (11716521_a_at) / RFU C5orf56 (11738089_at) / Fold change /veh C5orf56 (11738089_at) / RFU CYB561 (11721691_x_at) / Fold change /veh CYB561 (11721691_x_at) / RFU ANKRD19P (11752326_a_at) / Fold change /veh ANKRD19P (11752326_a_at) / RFU OR2T12 /// OR2T33 /// OR2T8 (11738714_s_at) / Fold change /veh OR2T12 /// OR2T33 /// OR2T8 (11738714_s_at) / RFU VCAN (11748164_a_at) / Fold change /veh VCAN (11748164_a_at) / RFU JSRP1 (11732532_at) / Fold change /veh JSRP1 (11732532_at) / RFU KRTAP10-11 (11738290_x_at) / Fold change /veh KRTAP10-11 (11738290_x_at) / RFU MYO3A (11730013_a_at) / Fold change /veh MYO3A (11730013_a_at) / RFU EBF3 (11725865_a_at) / Fold change /veh EBF3 (11725865_a_at) / RFU CAMK2N1 (11719241_x_at) / Fold change /veh CAMK2N1 (11719241_x_at) / RFU C5orf56 (11738088_a_at) / Fold change /veh C5orf56 (11738088_a_at) / RFU OLFML3 (11715873_a_at) / Fold change /veh OLFML3 (11715873_a_at) / RFU LOC100653217 /// NTM (11731650_a_at) / Fold change /veh LOC100653217 /// NTM (11731650_a_at) / RFU MAPK11 (11762145_a_at) / Fold change /veh MAPK11 (11762145_a_at) / RFU FIZ1 (11724087_x_at) / Fold change /veh FIZ1 (11724087_x_at) / RFU OASL (11726364_x_at) / Fold change /veh OASL (11726364_x_at) / RFU SOX15 (11748057_x_at) / Fold change /veh SOX15 (11748057_x_at) / RFU CD79A (11719716_a_at) / Fold change /veh CD79A (11719716_a_at) / RFU HIST1H1D (11736915_at) / Fold change /veh HIST1H1D (11736915_at) / RFU CASKIN2 (11723855_a_at) / Fold change /veh CASKIN2 (11723855_a_at) / RFU LOC730098 (11760151_x_at) / Fold change /veh LOC730098 (11760151_x_at) / RFU OR4N2 (11742367_at) / Fold change /veh OR4N2 (11742367_at) / RFU PRRT2 (11749266_a_at) / Fold change /veh PRRT2 (11749266_a_at) / RFU SNX32 (11753110_a_at) / Fold change /veh SNX32 (11753110_a_at) / RFU CDHR5 (11726645_a_at) / Fold change /veh CDHR5 (11726645_a_at) / RFU RCAN1 (11760418_a_at) / Fold change /veh RCAN1 (11760418_a_at) / RFU FAM167A (11723789_a_at) / Fold change /veh FAM167A (11723789_a_at) / RFU FAM26E (11764081_at) / Fold change /veh FAM26E (11764081_at) / RFU ISYNA1 (11749810_s_at) / Fold change /veh ISYNA1 (11749810_s_at) / RFU ACY1 (11761880_at) / Fold change /veh ACY1 (11761880_at) / RFU 11764098_at / Fold change /veh 11764098_at / RFU SAMD14 (11745864_x_at) / Fold change /veh SAMD14 (11745864_x_at) / RFU NPB (11741838_a_at) / Fold change /veh NPB (11741838_a_at) / RFU TMPRSS6 (11731388_a_at) / Fold change /veh TMPRSS6 (11731388_a_at) / RFU KRTAP10-2 (11738614_at) / Fold change /veh KRTAP10-2 (11738614_at) / RFU ARHGAP8 /// PRR5-ARHGAP8 (11727945_x_at) / Fold change /veh ARHGAP8 /// PRR5-ARHGAP8 (11727945_x_at) / RFU KRTAP5-7 /// NADSYN1 (11734609_at) / Fold change /veh KRTAP5-7 /// NADSYN1 (11734609_at) / RFU RASL12 (11751679_a_at) / Fold change /veh RASL12 (11751679_a_at) / RFU CDKN2B (11736163_a_at) / Fold change /veh CDKN2B (11736163_a_at) / RFU PRF1 (11729649_at) / Fold change /veh PRF1 (11729649_at) / RFU, ZNF638 /// ZNF638-IT1 / Fold change vs veh, ZNF638 /// ZNF638-IT1 / RFU, PANK3 / Fold change vs veh, PANK3 / RFU, SH3YL1 / Fold change vs veh, SH3YL1 / RFU, ZEB2 / Fold change vs veh, ZEB2 / RFU, NRIP1 / Fold change vs veh, NRIP1 / RFU, PTTG1IP / Fold change vs veh, PTTG1IP / RFU, CAPN2 / Fold change vs veh, CAPN2 / RFU, MED14 / Fold change vs veh, MED14 / RFU, SNORA58 / Fold change vs veh, SNORA58 / RFU, C1orf63 / Fold change vs veh, C1orf63 / RFU, LRRFIP1 / Fold change vs veh, LRRFIP1 / RFU, NDUFAF7 / Fold change vs veh, NDUFAF7 / RFU, SLC12A2 / Fold change vs veh, SLC12A2 / RFU, IBTK / Fold change vs veh, IBTK / RFU, ESF1 / Fold change vs veh, ESF1 / Fold change vs veh, TMEM50B / RFU, TAOK1 / Fold change vs veh, TAOK1 / RFU, ACBD3 / Fold change vs veh, ACBD3 / RFU, TMA16 / Fold change vs veh, TMA16 / RFU, RWDD3 / Fold change vs veh, RWDD3 / RFU, BCAT1 / Fold change vs veh, BCAT1 / RFU, EDEM3 / Fold change vs veh, EDEM3 / RFU, TMEM33 / Fold change vs veh, TMEM33 / RFU, WDR75 / Fold change vs veh, WDR75 / RFU, AHCTF1 / Fold change vs veh, AHCTF1 / RFU, TFRC / Fold change vs veh, TFRC / RFU, ZDHHC17 / Fold change vs veh, ZDHHC17 / RFU, NOM1 / Fold change vs veh, NOM1 / RFU, ARL8B / Fold change vs veh, ARL8B / RFU, ZBTB11 / Fold change vs veh, ZBTB11 / RFU, TAMM41 / Fold change vs veh, TAMM41 / RFU, KIAA1704 /// LOC100996395 / Fold change vs veh, KIAA1704 /// LOC100996395 / RFU, ING1 / Fold change vs veh, ING1 / RFU, TRMT61B / Fold change vs veh, TRMT61B / RFU, FUBP3 / Fold change vs veh, FUBP3 / RFU, TP53 / Fold change vs veh, TP53 / RFU, TNKS2 / Fold change vs veh, TNKS2 / RFU, ZFP14 / Fold change vs veh, ZFP14 / RFU, ACTR2 / Fold change vs veh, ACTR2 / RFU, PPP3R1 / Fold change vs veh, PPP3R1 / RFU, PIK3R1 / Fold change vs veh, PIK3R1 / RFU, HNRNPA1 / Fold change vs veh, HNRNPA1 / RFU, RNF170 / Fold change vs veh, RNF170 / RFU, ZNF28 / Fold change vs veh, ZNF28 / RFU, RNGTT / Fold change vs veh, RNGTT / RFU, OGT / Fold change vs veh, OGT / RFU, BRD1 / Fold change vs veh, BRD1 / RFU, MARS / Fold change vs veh, MARS / RFU, ZNF655 / Fold change vs veh, ZNF655 / RFU, FAHD1 / Fold change vs veh, FAHD1 / RFU, BDP1 / Fold change vs veh, BDP1 / RFU, LRRCC1 / Fold change vs veh, LRRCC1 / RFU, ARID1A / Fold change vs veh, ARID1A / RFU, ZNF146 / Fold change vs veh, ZNF146 / RFU, ZNF330 / Fold change vs veh, ZNF330 / RFU, GPN3 / Fold change vs veh, GPN3 / RFU, C9orf123 / Fold change vs veh, C9orf123 / RFU, N4BP2L2 / Fold change vs veh, N4BP2L2 / RFU, ARFIP1 / Fold change vs veh, ARFIP1 / RFU, FAM179B / Fold change vs veh, FAM179B / RFU, BCL10 / Fold change vs veh, BCL10 / RFU, UHRF1BP1L / Fold change vs veh, UHRF1BP1L / RFU, BET1 / Fold change vs veh, BET1 / RFU, CNOT2 / Fold change vs veh, CNOT2 / RFU, ZNF268 / Fold change vs veh, ZNF268 / Fold change vs veh, ZNF507 / RFU, DGCR2 / Fold change vs veh, DGCR2 / RFU, WDSUB1 / Fold change vs veh, WDSUB1 / Fold change vs veh, HSP90B1 /// MIR3652 / RFU, ADSS / Fold change vs veh, ADSS / RFU, GK / Fold change vs veh, GK / RFU, ZNF148 / Fold change vs veh, ZNF148 / RFU, TAF9 / Fold change vs veh, TAF9 / RFU, SLC1A5 / Fold change vs veh, SLC1A5 / RFU, SLMO2 / Fold change vs veh, SLMO2 / RFU, ABCC4 / Fold change vs veh, ABCC4 / RFU, LOC101060439 /// RAP1B / Fold change vs veh, LOC101060439 /// RAP1B / RFU, RFX7 / Fold change vs veh, RFX7 / RFU, GTPBP10 / Fold change vs veh, GTPBP10 / RFU, CNEP1R1 / Fold change vs veh, CNEP1R1 / RFU, BIVM-ERCC5 /// ERCC5 / Fold change vs veh, BIVM-ERCC5 /// ERCC5 / RFU, ILF3 / Fold change vs veh, ILF3 / RFU 11762660_at / Fold change /veh 11762660_at / RFU VCAN (11757783_s_at) / Fold change /veh VCAN (11757783_s_at) / RFU DDX43 (11728927_at) / Fold change /veh DDX43 (11728927_at) / RFU KRT8 (11758188_x_at) / Fold change /veh KRT8 (11758188_x_at) / RFU NKD1 (11759106_at) / Fold change /veh NKD1 (11759106_at) / RFU SRD5A1 (11742802_a_at) / Fold change /veh SRD5A1 (11742802_a_at) / RFU TPSAB1 /// TPSB2 (11721975_s_at) / Fold change /veh TPSAB1 /// TPSB2 (11721975_s_at) / RFU GSTM3 (11746129_a_at) / Fold change /veh GSTM3 (11746129_a_at) / RFU IL23R (11737362_x_at) / Fold change /veh IL23R (11737362_x_at) / RFU TMEM51 (11727254_a_at) / Fold change /veh TMEM51 (11727254_a_at) / RFU PIWIL2 (11732686_x_at) / Fold change /veh PIWIL2 (11732686_x_at) / RFU ORM1 (11744905_x_at) / Fold change /veh ORM1 (11744905_x_at) / RFU CCDC152 (11743942_at) / Fold change /veh CCDC152 (11743942_at) / RFU ECM1 (11717891_a_at) / Fold change /veh ECM1 (11717891_a_at) / RFU IL23R (11748794_a_at) / Fold change /veh IL23R (11748794_a_at) / RFU TNFAIP8L3 (11732012_x_at) / Fold change /veh TNFAIP8L3 (11732012_x_at) / RFU MBOAT4 (11741988_at) / Fold change /veh MBOAT4 (11741988_at) / RFU 11764193_at / Fold change /veh 11764193_at / RFU TMEM53 (11763286_at) / Fold change /veh TMEM53 (11763286_at) / RFU MAGEB2 (11727129_at) / Fold change /veh MAGEB2 (11727129_at) / RFU TMEM200A (11744735_a_at) / Fold change /veh TMEM200A (11744735_a_at) / RFU CCDC152 (11751479_a_at) / Fold change /veh CCDC152 (11751479_a_at) / RFU FAM211A (11726209_a_at) / Fold change /veh FAM211A (11726209_a_at) / RFU RGS16 (11746705_a_at) / Fold change /veh RGS16 (11746705_a_at) / RFU VCAN (11755009_s_at) / Fold change /veh VCAN (11755009_s_at) / RFU RHOB (11743442_s_at) / Fold change /veh RHOB (11743442_s_at) / RFU RGS16 (11720943_a_at) / Fold change /veh RGS16 (11720943_a_at) / RFU RGS16 (11720944_at) / Fold change /veh RGS16 (11720944_at) / RFU, VPS4B / Fold change vs veh, VPS4B / RFU, CREB1 / Fold change vs veh, CREB1 / RFU, DNAJC13 / Fold change vs veh, DNAJC13 / RFU, GNAQ / Fold change vs veh, GNAQ / RFU, CDK5R1 / Fold change vs veh, CDK5R1 / RFU, ZRANB3 / Fold change vs veh, ZRANB3 / RFU, CUL4A / Fold change vs veh, CUL4A / RFU, CCNY / Fold change vs veh, CCNY / RFU, UFL1 / Fold change vs veh, UFL1 / RFU, COG3 / Fold change vs veh, COG3 / RFU, DIAPH2 / Fold change vs veh, DIAPH2 / RFU, SKA2 / Fold change vs veh, SKA2 / RFU, AFF3 / Fold change vs veh, AFF3 / RFU, LMF1 / Fold change vs veh, LMF1 / RFU, IPO11 / Fold change vs veh, IPO11 / RFU, DFFB / Fold change vs veh, DFFB / RFU, FOXP1 / Fold change vs veh, FOXP1 / RFU, CARD8 / Fold change vs veh, CARD8 / RFU, STRN3 / Fold change vs veh, STRN3 / RFU, ADK / Fold change vs veh, ADK / RFU, RASSF2 / Fold change vs veh, RASSF2 / RFU, WIPF1 / Fold change vs veh, WIPF1 / RFU, LARP1B / Fold change vs veh, LARP1B / RFU, RASA1 / Fold change vs veh, RASA1 / RFU, RB1 / Fold change vs veh, RB1 / RFU, PPFIA1 / Fold change vs veh, PPFIA1 / RFU, MAT2A / Fold change vs veh, MAT2A / RFU, CCT5 / Fold change vs veh, CCT5 / RFU, WDR92 / Fold change vs veh, WDR92 / RFU, CUX1 / Fold change vs veh, CUX1 / RFU, TTC7A / Fold change vs veh, TTC7A / RFU, TMEM135 / Fold change vs veh, TMEM135 / RFU, DEPTOR / Fold change vs veh, DEPTOR / RFU, CPM / Fold change vs veh, CPM / RFU, DNAJB6 / Fold change vs veh, DNAJB6 / RFU, CACNA2D3 / Fold change vs veh, CACNA2D3 / RFU, DTX4 / Fold change vs veh, DTX4 / RFU, TFCP2 / Fold change vs veh, TFCP2 / RFU, GMCL1 /// GMCL1P1 / Fold change vs veh, GMCL1 /// GMCL1P1 / RFU, AEBP2 / Fold change vs veh, AEBP2 / RFU, SNHG1 /// SNORD22 /// SNORD25 /// SNORD26 /// SNORD27 /// SNORD28 /// SNORD29 /// SNORD31 / Fold change vs veh, SNHG1 /// SNORD22 /// SNORD25 /// SNORD26 /// SNORD27 /// SNORD28 /// SNORD29 /// SNORD31 / Fold change (Aza/veh), C12orf56 (ProbeSet 11735607_a_at) / Fold change (ACY-1035/veh), C12orf56 (ProbeSet 11735607_a_at) / Fold change (Aza/veh), FGFR1OP (ProbeSet 11751329_s_at) / Fold change (ACY-1035/veh), FGFR1OP (ProbeSet 11751329_s_at) / Fold change (Aza/veh), VPS36 (ProbeSet 11739960_a_at) / Fold change (ACY-1035/veh), VPS36 (ProbeSet 11739960_a_at) / RFU SYPL1 (11715823_x_at) / Fold change /veh SYPL1 (11715823_x_at) / RFU IGFBP7 (11715501_s_at) / Fold change /veh IGFBP7 (11715501_s_at) / RFU REEP3 (11722064_at) / Fold change /veh REEP3 (11722064_at) / RFU IGLL1 (11728026_x_at) / Fold change /veh IGLL1 (11728026_x_at): dose or concentration left out as unconfirmed
Details: MV-4-11 cells, 48 hours

Nc1ncn([C@@H]2O[C@H](CO)[C@@H](O)[C@H]2O)c(=O)n1 [azacitidine]
RFU SPTSSB (11747773_x_at): 34.53 RFU
